RP-LC retention time data for 80 compounds are collected here from the METLIN SMRT retention time set (Domingo-Almenara et al. 2019).

The data set is described as follows: gradient 5% acetonitrile 3 min, to 50% in 2 min, to 85% in 15 min, held 3 min, 100 µL/min. As to conditions: column: Zorbax Extend-C18 2.1 x 50 mm; eluents: water / acetonitrile, 0.1% formic acid. The gist of the method:
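Standards, all pure, were combined into mixtures of ~100 molecules and run at 100 μL/min on a Zorbax Extend-C18 column (2.1 × 50 mm, 1.8 μm) with water and acetonitrile, each containing 0.1% formic acid. A coupled quadrupole time-of-flight mass spectrometer operated in positive and negative ionization mode. Retention time values come from computationally picked adduct peaks, each inspected manually.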
In turn, `O=C([C@@H]1C[C@H](F)CN1S(=O)(=O)c1cccc(C(F)(F)F)c1)N1CCCCC1` returned an RP-LC retention time of 878 s.

For `Cn1c(=O)c2cc(C(=O)Nc3ccc4c(c3)OCCO4)cnc2n(-c2ccc(F)cc2)c1=O`, the RP-LC retention time came out at 856 s.

As for `O=C(NC1CCCC1)c1ccc2c(c1)nc1n2CCCCC1`, the RP-LC retention time amounted to 600 s.

On to `Cc1nn(C2CCS(=O)(=O)C2)c(C)c1N1CCN(S(=O)(=O)c2cccnc2)CC1` (stereo not given), for which the RP-LC retention time was determined as 679 s.

`O=C(Cn1ccnc1-c1ccnc(N2CCSCC2)c1)N1CCN(c2ccccc2)CC1` registered an RP-LC retention time of 697 s.

Consider `COc1ccccc1-c1csc(-c2nnn(-c3ccccc3)c2N)n1`, for which the RP-LC retention time is 1070 s.

`CCCc1ccc(S(=O)(=O)Nc2ccc3nc(S(=O)(=O)CC)sc3c2)cc1` showed an RP-LC retention time of 1020 s.

Compound `O=C(NC1CCS(=O)(=O)C1)C1CCN(C(=O)C2CC(=O)N(c3ccc(F)cc3)C2)CC1` (stereo not given) registered an RP-LC retention time of 633 s.

`CC(C)NC(=O)c1ccc(OCC2CCCN(C(=O)C3CCCO3)C2)cc1` (stereo not given): the RP-LC retention time was determined as 688 s.

Compound `Cc1ccc([N+](=O)[O-])cc1S(=O)(=O)Nc1ccc(-c2cn3ccccc3n2)cc1` gave an RP-LC retention time of 664 s.

Turning to `C[C@H]1CN(C(=O)C2(c3ccccc3)CC2)C[C@@H]1c1nc(-c2cccnc2)no1`, the RP-LC retention time came out at 827 s.

Regarding `CCn1c(=O)n(CC(=O)NCCC(C)C)c(=O)c2cnc(-c3ccccc3)nc21`, the RP-LC retention time is 678 s.

In turn, `Cc1ccc(NC(=O)Cn2c(N)nc(C)cc2=O)cc1` came in with an RP-LC retention time of 577 s.

Take `Cc1ccc(S(=O)(=O)C2=C(O)C(=O)N(Cc3ccco3)C2c2ccc(F)cc2)cc1` (stereo not given): the RP-LC retention time was 931 s.

On to `CCN(CC)c1ncc2c(n1)CCC(C(=O)Nc1ccc(N3CCOCC3)cc1)C2` (stereo not given), for which the RP-LC retention time worked out at 641 s.

For the compound `COc1ccc(NC(=O)C2CCN(S(=O)(=O)c3ccc4[nH]c(=O)ccc4c3)CC2)cc1Cl`, the RP-LC retention time worked out at 752 s.

For `CCCn1cc(CCNS(=O)(=O)c2cccc(C#N)c2)c2cccnc21`, the RP-LC retention time is 789 s.

Compound `COc1cc(N2C=C(C#N)S(=O)(=O)c3ccc(C)cc32)cc(OC)c1OC` showed an RP-LC retention time of 887 s.

In turn, `Cc1c(Cl)cccc1NC(=O)N1CCC(n2cnc3ccccc3c2=O)CC1` had an RP-LC retention time of 791 s.

As for `CC1CN2C=NC(N3CCN(C(=O)Nc4ccccc4C(F)(F)F)CC3)=CC2=N1` (stereo not given), the RP-LC retention time came to 616 s.

Consider `O=C(NCCCN1CCCCC1)c1cc(=O)n2c(nc3ccccc32)s1`, for which the RP-LC retention time came out at 621 s.

In turn, `CCOC(=O)c1ncoc1-c1ccccc1C(=O)NC1CCCCC1` had an RP-LC retention time of 770 s.

As to `CCn1ccc2cc(S(=O)(=O)N3CCC(C(=O)N4CCN(c5ncccn5)CC4)CC3)ccc21`, the RP-LC retention time came to 880 s.

On to `Cc1ccc(-c2csc(NC(=O)c3nc4ccccc4s3)n2)o1`, for which the RP-LC retention time was determined as 1120 s.

On to `CCCCCC[C@@H]([C@@H](C)O)n1cnc2c(N)ncnc21`, for which the RP-LC retention time amounted to 714 s.

As for `ONC(=NCc1ccccc1)c1ccccc1`, the RP-LC retention time turned out to be 690 s.

For the compound `CCn1cc(-c2ccc(C)cc2)cc1C(=O)NC(C)C`, the RP-LC retention time was found to be 1040 s.

On to `CCOC(=O)c1nc(N(CC)Cc2ccccc2)c2ccccc2n1`, for which the RP-LC retention time is 899 s.

With `Cc1nc2nc(-c3ccccc3)nn2c(C)c1CC(=O)N1CCCC1`, the RP-LC retention time was found to be 679 s.

Turning to `C=CCn1c(=O)c2ccccc2n(Cc2nc(-c3ccc(Br)cc3)no2)c1=O`, the RP-LC retention time was determined as 1150 s.

In turn, `CCN1CCN(C(=O)CSCc2nc3cccnc3n2C2CCCCC2)CC1` had an RP-LC retention time of 625 s.

With `CCOc1ccc(C(=O)N2CCN(c3ccc(-c4nc(CC)cs4)cn3)CC2)cc1`, the RP-LC retention time is 987 s.

As for `COc1ccc(NC(=O)C2CCN(c3cc(N4CCSCC4)ncn3)CC2)cc1Cl`, the RP-LC retention time came to 706 s.

The compound `COc1ccc(CCNC(=O)C2CCc3nc(N4CCCCC4)ncc3C2)cc1OC` (stereo not given) yielded an RP-LC retention time of 702 s.

Compound `Nc1ncnc(Nc2ccc(Cl)cc2)n1` returned an RP-LC retention time of 704 s.

Take `COCC(=O)N(CC(=O)N1CCc2sccc2C1COc1ccc(Cl)cc1)C(C)(C)C` (stereo not given): the RP-LC retention time came to 991 s.

The compound `CC(=O)Nc1ccc2cc3ccc(NC(C)=O)cc3nc2c1` returned an RP-LC retention time of 632 s.

Consider `Clc1ccc(Cl)c(-c2ccc(CNCc3ccccn3)o2)c1`, for which the RP-LC retention time came out at 733 s.

The compound `Cc1nnc2c(=O)n(CC(=O)N3CCN(C4CCCCC4)CC3)c3cccnc3n12` showed an RP-LC retention time of 587 s.

Regarding `Cc1ccc(C)c(C(=O)NCc2ccc3c(c2)ncn3C)c1`, the RP-LC retention time was found to be 604 s.

Regarding `COCCNC(=O)C1COC2(CCCCC2)N1C(=O)c1cccc(C(F)(F)F)c1` (stereo not given), the RP-LC retention time amounted to 814 s.

The compound `CC(NC(=O)c1ccccc1)c1nc(-c2ccc(NS(=O)(=O)c3cccs3)cc2)no1` (stereo not given) yielded an RP-LC retention time of 890 s.

In turn, `COc1ccc(-c2ccnc3nc(Cc4ccc(F)cc4)nn23)cc1OC` displayed an RP-LC retention time of 851 s.

The compound `CCn1cc(-c2nc(C(=O)Nc3ccccc3Cl)cs2)c2cccnc21` had an RP-LC retention time of 1330 s.

Turning to `CCSc1nccc2c1ccn2CC(=O)NCc1ccc(OC)cc1OC`, the RP-LC retention time was 651 s.

As to `Cc1ccc2c(c1)C(C)(C)C(=O)N2CC(=O)N1CCN(c2ncccn2)CC1`, the RP-LC retention time stood at 773 s.

`Cc1ccc(-c2noc(-c3cc(N4CCN(C)CC4)nc4ccccc34)n2)cc1` displayed an RP-LC retention time of 835 s.

Consider `Cc1ccc(S(=O)(=O)N2CCCN(c3ccc(=O)n(-c4ccc(F)cc4)n3)CC2)c(C)c1`, for which the RP-LC retention time amounted to 961 s.

With `COc1cc(C(=O)Nc2nnc(SCc3nnc(-c4ccccc4C)o3)s2)cc(OC)c1OC`, the RP-LC retention time amounted to 942 s.

Compound `CCC1Oc2ccc(S(=O)(=O)N3CCC(C(=O)NCc4cccc(C)c4)CC3)cc2NC1=O` (stereo not given) yielded an RP-LC retention time of 893 s.

`CC(C)CC(=O)Nc1ccc2nc(N3CCN(c4ccc(Cl)cc4)CC3)cc(C(=O)O)c2c1` came in with an RP-LC retention time of 746 s.

The compound `COC(=O)c1cccc(C(=O)Nc2ccc(F)cc2Cl)n1` yielded an RP-LC retention time of 993 s.

Turning to `CCC(C)NC(=O)CCc1c(-c2ccc(Cl)cc2)nc2ccccn12` (stereo not given), the RP-LC retention time was determined as 653 s.

Take `O=C(NCc1ccco1)Nc1cccc([N+](=O)[O-])c1`: the RP-LC retention time worked out at 846 s.

Take `COc1ccc(-n2c(=O)c(C(=O)Nc3cc(F)cc(F)c3)c(O)c3cccnc32)cc1`: the RP-LC retention time stood at 1300 s.

As for `CCC(CC)C(=O)Nc1nc(-c2ccc(Cl)cc2)cs1`, the RP-LC retention time came out at 1150 s.

`Cc1cc(C)c(C(=O)N2CCCC(C(=O)NCc3ccccc3Cl)C2)[nH]1` (stereo not given) had an RP-LC retention time of 834 s.

Regarding `Cc1cc(=O)n(CC(=O)Nc2cccc(Cl)c2)c(N(C)Cc2ccccc2)n1`, the RP-LC retention time is 797 s.

Compound `Cc1ccc(S(=O)(=O)Nc2ccc(Cn3cncn3)cc2)cc1F` returned an RP-LC retention time of 732 s.

For the compound `Clc1ccc(-c2nc3ccccn3c2Nc2ccc3c(c2)OCCO3)cc1`, the RP-LC retention time is 708 s.

In turn, `Cc1ccc(S(=O)(=O)NC(c2nc(-c3ccc(-c4csc(C)n4)cc3)no2)C(C)C)cc1` (stereo not given) had an RP-LC retention time of 1160 s.

`Cc1cc(=O)n(CC(=O)Nc2ccc(Br)cc2F)c(N2CCN(c3ccccc3)CC2)n1` had an RP-LC retention time of 978 s.

In turn, `CC(=O)N1CCOc2cc(S(=O)(=O)N3CCCCCC3c3cccc(F)c3)ccc21` (stereo not given) registered an RP-LC retention time of 999 s.

`Cc1cccc(-c2noc(CN3C(=O)COc4cc(Cl)ccc43)n2)c1` had an RP-LC retention time of 1160 s.

`CCn1c(COc2cccc3cccnc23)nnc1SC(F)F` had an RP-LC retention time of 568 s.

Regarding `CC(=O)NNC(=O)N1Cc2ccccc2Oc2ccc(Cl)cc21`, the RP-LC retention time was determined as 843 s.

In the case of `COC(=O)C1=C(NC(=O)c2ccc(N3C(=O)CCC3=O)cc2)CCS1`, the RP-LC retention time was 739 s.

As to `OCCNCc1ccc(-c2ccc(Cl)cc2)o1`, the RP-LC retention time turned out to be 966 s.

Compound `CCOc1ccc(S(=O)(=O)N2CCCC(C(=O)Nc3cc(C)ccc3OC)C2)cc1` (stereo not given) registered an RP-LC retention time of 1090 s.

As to `CCCN1CCN(C(=O)c2csc(N3CCN(c4ccc(OC)cc4)CC3)n2)CC1`, the RP-LC retention time came out at 626 s.

With `Cc1cc(C)cc(C(=O)N2CCc3[nH]nc(C(=O)N(C)C)c3C2)c1`, the RP-LC retention time worked out at 655 s.

For `COc1ccc(Cc2nc3nccc(-c4ccc(F)cc4)n3n2)cc1`, the RP-LC retention time stood at 882 s.

`O=C(c1ccc(CS(=O)c2ccc(Br)cc2)o1)N1CCN(c2ccccn2)CC1` (stereo not given) had an RP-LC retention time of 580 s.

`O=C(NCCc1csc(-c2ccccc2)n1)C1CCN(S(=O)(=O)c2cccc(F)c2)CC1` showed an RP-LC retention time of 922 s.

As to `O=C(Nc1nc(-c2cccs2)cs1)c1ccc2ncsc2c1`, the RP-LC retention time stood at 874 s.

As for `CCc1ccc(NS(=O)(=O)c2ccc(-c3nnc(C4CCC4)o3)o2)cc1`, the RP-LC retention time came to 996 s.

As to `Cc1nn(C(=O)c2cccnc2)c(C)c1Sc1ccccc1[N+](=O)[O-]`, the RP-LC retention time is 916 s.

The compound `Cc1nc(C(=O)N2CCSCC2)c(C)o1` showed an RP-LC retention time of 620 s.

`COC(=O)Cn1nc2c(-c3nc(-c4ccc(Cl)cc4)no3)cccn2c1=O`: the RP-LC retention time amounted to 911 s.

In the case of `CCC(CC)C(=O)Nc1nc(-c2ccccc2)c(-c2ccccc2)o1`, the RP-LC retention time was determined as 1040 s.
